The source of these data is patent US6653327B2, “Cross-regulin composition of tumeric-derived tetrahydrocurcuminoids for skin lightening and protection against UVB rays” (Sabinsa Corporation, priority 1999, dated 2003).

The test system of assay [1] is UVB-induced sunburn cells and p21 protein in epidermis. Kind of assay: UVB-induced formation of sunburn cells and p21 protein levels in epidermis. The settings on record: 8 hours after UVB. Format: in vivo, SKH-1 mice. As to the method: Female Sencar mice (5 mice per group) were treated topically with 100 ul acetone or inhibitor in acetone at 5 min before a single dose of UVB (60 mJ/cm2) irradiation. The mice were killed 8 hours after UVB irradiation, and the skin biopsies were evaluated for sunburn cells and p21 protein.

For assay [2], the system named is TPA-induced ear edema. Kind of assay: TPA-induced ear edema in mice (ear punch weight). The settings on record: 5 hours; for Wg/punch: mean SE. Format: in vivo, Female CF-1 mice. Here is the method:
Applicants have postulated that the crossregulin composition of the invention is an optimal composition for protecting and preserving healthy living cells and for preventing cytoskeletons of the healthy living cells from being damaged by TPA and TPA-like tumor promoters. In an experiment conducted in vivo, the ear skin of Female CF-1 mice was treated with either 20 microliters acetone, TPA in acetone or TPA with Tetrahydrocurcuminoids of the invention [THC1], known Tetrahydrocurcuminoids [THC2] and known pure (synthetic) Tetrahydrocurcumin [THC3].
Five hours later the mice were sacrificed and ear punches were weighted (the higher the weight, score the more severe the inflammation of the treated ear-skin). Based on the weight score of the ear punches, the percent of inflammation inhibition was calculated. Protection against inflammation in decreasing order was furnished by THC1 of the invention, followed by THC2 of the prior art, and finally followed by THC3. […] Prior art, as exemplified by the research data, cannot accomplish inhibition of the TPA induced ear edema above 80%. More than 80% inhibition of TPA-induced ear edema is necessary to prevent crosslinking of proteins which could trigger skin cancer. Therefore crossregulin action is not an inherent part of just any composition of THCs, but it is a specific composition that affords inhibition of the TPA mechanism by more than 80%.

[3] abbreviates: 10 uM topical 5 min before UVB (60 mJ/cm2).
[4] abbreviates: 20 uM topical 5 min before UVB (60 mJ/cm2).

Consider `O=C(CC(=O)c1ccccc1)c1ccccc1` [DBM, dibenzoylmethane], for which, in assay [1] (setting [3]), the “% p21” value is 1.2%, the “Number of positive cells per 1 cm slide (p21)” value is 33.5 ± 7.49, the “Number of sunburn cells per 1 cm slide” value turned out to be 13.2 ± 5.35 and the “Percent Of Sunburn cells” value came to 1.2. In assay [1] (setting [4]), the “% p21” value turned out to be 2.2%, the “Number of positive cells per 1 cm slide (p21)” value turned out to be 60.6 ± 12.9, the “Number of sunburn cells per 1 cm slide” value came to 8.6 ± 1.78 and the “Percent Of Sunburn cells” value is on record as 0.9.
On to `COc1cc(CCC(=O)CC(=O)CCc2ccc(O)c(OC)c2)ccc1O` [THC3, tetrahydrocurcumin], for which the Wg/punch in assay [2] (dose 0.36 mg topical with TPA (1 nmol) in acetone on both ears) came to 8.1 ± 0.3; in assay [2] (dose 0.12 topical with TPA (1 nmol) in acetone on both ears), 7.8 ± 0.3. Moreover, the “% inhibition of TPA-induced ear edema” value is 77.2% in assay [2] (dose 0.36 mg topical with TPA (1 nmol)) and 81.0% in assay [2] (dose 0.12 topical with TPA (1 nmol)).
